Test results reported in article PMC6331978 (Molecules, 2015).
“Also recorded” adds a separate entry of the source. Where two headings read alike, the source gives them in different places.

Tests used:
[1] = system: primary culture of rat hepatocytes; experiment: Effect of sesquiterpenes on DOX toxicity in hepatocytes, MTT test; details: 24 h; for Effect on DOX toxicity in hepatocytes at 0.5 µM DOX: 0.5 µM DOX + 12.5 µg/mL sesquiterpene; for Effect on DOX toxicity in hepatocytes at other DOX concentrations: DOX 0.25, 1, 2 µM + sesquiterpene
Description: (§2) The toxicity of DOX alone as well as combinations of DOX and sesquiterpene was tested in primary culture of rat hepatocytes. […] The number of viable cells was measured after 24 h exposition of cells to various concentrations of the tested compounds.
Data presented as percentage of control cells (=100%) represent the mean ± S.D. from 2 independent experiments with 6 parallels in each (↑ significant increase; ↓ significant decrease).
Pure commercially available sesquiterpenes and DOX were pre-dissolved in DMSO or in pure ethanol. The concentration of organic solvent in medium was 0.1%. The cells were exposed to various concentrations of the tested compounds in culture medium. The cells cultured in medium with pure DMSO or ethanol without tested compounds were used as control samples. DMSO (10%) served as a positive control in both the primary culture of hepatocytes and of CaCo-2 cells. […] The viability of the hepatocytes was tested using a MTT assay after 24 h expositions.
(§3) The mitochondria of living cells are able to reduce yellow MTT (3-(4,5-dimethylthiazol-2-yl)-2,5-diphenyltetrazolium bromide) to purple formazan. The cells were cultured in 96-well plates. After 24 h exposure, 25 µL of MTT solution (3 mg of MTT in 1 mL of PBS) were added to each well. The plates were incubated for an additional 2 h at 37 °C, at which time the medium was removed and the formed formazan was dissolved in 50 µL of 0.08 M HCl in isopropanol by 30 min shaking. The absorbance in each well was read at 570 and 690 nm using a spectrophotometer (Tecan Infinite M200).

CaCo-2 cells [2] = experiment: Combination of DOX and sesquiterpenes in CaCo-2 cells, NRU test, combination indexes (CalcuSyn); type: cell-based, human; details: CaCo-2, 72 h; for Combined effect with DOX (combination index, CI): NRU, CalcuSyn
Description: Concentrations of DOX and sesquiterpenes were selected according to the Chou-Talalay Method. After 72-h incubation, the number of viable cells was assayed using NRU. […] When DOX was used in combinations with individual sesquiterpenes, a significant increase of DOX efficacy was observed.
With the aim of evaluating and quantifying the combined effect of DOX and sesquiterpenes, combination indexes were calculated using CalcuSyn (ver. 1.1, Biosoft, Cambridge, UK); the plot of combination indexes (CI) vs. fractions of dead cells (Fa) is presented in Figure 5. […] It is important to emphasize that synergy of anticancer agents at high effect levels (Fa > 0.8) is more relevant to therapy than at low levels.
Figure 5 Combination indexes (CI) of DOX and sesquiterpenes in dependence on fraction of affected CaCo-2 cells (Fa). Incubations lasted for 72 h. Data were calculated using CalcuSyn software.
The cells were cultured in 96‑well plates. After 72 h exposure, the medium was removed and 100 µL of neutral red-containing medium was added into each well, at which time the plates were incubated for an additional 3 h at 37 °C. The cells were washed with 100 µL of PBS, then fixed in a solution of 0.5% formaldehyde/1% calcium chloride for 15 min. The neutral red dye was extracted from the viable cells with a solvent (50% ethanol/1% acetic acid) by shaking for 30 min at room temperature. The absorbance of solubilized dye was measured using a spectrophotometer (Infinite M200, Tecan, Männedorf, Switzerland) at 540 nm. Each sample was assayed in 6 parallels and 3 independent experiments were performed. The viabilities of the treated cells were expressed as a percentage of untreated controls (100%). The effect of sesquiterpenes on DOX efficacy was evaluated using CalcuSyn software.

CaCo-2 cells [3] = experiment: Intracellular ROS formation (H2DCF-DA) in CaCo-2 cells; type: cell-based, human; details: for Effect on ROS formation, sesquiterpene alone: 10 µg/mL; for Effect of DOX + sesquiterpene on ROS formation compared with DOX alone: DOX 1 µM + sesquiterpene 10 µg/mL
From the text: (§1) To assess ROS generation in CaCo-2 cells or […], a measurement of 2′,7′-dichlorodihydrofluorescein-diacetate (H2DCF-DA) oxidation was used. This non-fluorescent reagent diffuses passively through the plasma membrane into the cell, where the acetate groups are cleaved by intracellular esterases. The compound can then be oxidized by ROS formed within the cell (particularly by hydroxyl radicals, •OH) to form fluorescent dichlorofluorescein (DCF), while the fluorescence intensity is proportional to the ROS level. CaCo-2 cells or hepatocytes (seeded in a 96-well plate at a density of 2500 cells/well) were washed by PBS buffer and loaded with 100 µL of the tested substances (individual sesquiterpenes, DOX alone, DOX + sesquiterpene combinations pre-dissolved in DMSO) in PBS buffer. After 12-h incubation, 100 µL of 5 μM H2DCF-DA were added. After another incubation of 30-min, fluorescence intensity was measured for 50 min at 37 °C using a microplate reader Tecan Infinite M200 at λex = 485 nm and λem = 525 nm. Cells treated with PBS only with pure DMSO (as a solvent) were used as control samples. The 3% H2O2 solution was used as a positive control.

CaCo-2 cells [4] = experiment: Antiproliferative effect in CaCo-2 cells, neutral red uptake (NRU) test; type: cell-based, human; details: for Inhibition of cancer cell proliferation: 0–50 µg/mL, 72 h; for IC50: Homo sapiens
Description: Firstly, the antiproliferative effect of five sesquiterpenes CAR, CAO, HUM, NER, VAL was tested in CaCo-2 cancer cells. The cells were incubated with individual sesquiterpenes in concentrations 0–50 µg/mL for 72 h. After incubation, a number of viable cells was assayed using a NRU test and IC50 values were calculated.
CaCo-2 cancer cells were incubated with DOX alone (concentrations 0.25, 0.5, 1, 2, 4 µM), with individual sesquiterpenes alone (concentrations 6.125, 12.5, 25, 50 µg/mL) and with DOX (concentrations 0.25, 0.5, 1, 2 µM) in combinations with each sesquiterpene (concentrations 6.125, 12.5, 25, 50 µg/mL). […] After 72-h incubation, the number of viable cells was assayed using NRU.
The human epithelial colorectal adenocarcinoma line CaCo-2 was purchased from ATCC (supplier for Czech Republic: LGC Standards, Lomianki, Poland). […] The CaCo-2 cells were cultured in MEM supplemented with 10% heat-inactivated FBS, 1% non-essential amino acid, 1.5% L-glutamine solution and 0.5% penicillin/streptomycin. Cells were grown in T-75 cm^2 culture flasks in a humidified atmosphere containing 5% CO2 at 37 °C.
Pure commercially available sesquiterpenes and DOX were pre-dissolved in DMSO or in pure ethanol. The concentration of organic solvent in medium was 0.1%. The cells were exposed to various concentrations of the tested compounds in culture medium. The cells cultured in medium with pure DMSO or ethanol without tested compounds were used as control samples. […] The number of viable CaCo-2 cells was assayed using the neutral red uptake test after 72 h expositions.
Data are presented as means ± S.D. of a given number of experiments. Statistical significance (evaluated using a one-way ANOVA) was acceptable to a level of p < 0.05. The concentration inducing a 50% decrease of cell viability as compared to control (IC50) was calculated using GraphPad Prism 6.0 nonlinear regression.

[5] = system: primary culture of rat hepatocytes; experiment: Viability of primary culture of rat hepatocytes, MTT test; details: 24 h; for Hepatotoxicity / viability of hepatocytes: sesquiterpene alone 0–50 µg/mL
Description: as §2
The rat hepatocytes were obtained from rat liver by the two-step collagenase method. Briefly, the liver was perfused with salt solution (0.14 M NaCl, 5.0 mM KCl, 0.8 mM MgSO4) in Na^+/K^+ phosphate buffer (0.2 mM, pH 7.4) containing a calcium binding component (0.4 mM EGTA). […] The collagenase perfusion was proceeded for 5–6 min. After perfusion the liver was transferred to a medium containing BSA and the hepatocytes were released. The obtained suspension was filtered through a nylon mesh and centrifuged at 40× g for 5 min at 4 °C. The pellet was re-suspended in chilled buffer and the washing procedure was twice repeated. Finally, three million viable (75%–85%) cells in 3 mL of culture medium ISOM (1:1 mixture of Ham F12 and Williams’ E) were placed into 96-well plastic dishes. The fetal calf serum was added in the culture medium (5%). Cultures were maintained without the tested compounds for 4 h at 37 °C in a humid atmosphere of air and 5% CO2.
Pure commercially available sesquiterpenes and DOX were pre-dissolved in DMSO or in pure ethanol. The concentration of organic solvent in medium was 0.1%. The cells were exposed to various concentrations of the tested compounds in culture medium. The cells cultured in medium with pure DMSO or ethanol without tested compounds were used as control samples. […] The viability of the hepatocytes was tested using a MTT assay after 24 h expositions.
as §3

hepatocytes = experiment: Intracellular ROS formation (H2DCF-DA) in hepatocytes; type: cell-based, rat; details: DOX 1 µM
From the text: as §1

CaCo-2 cells [6] = experiment: DOX accumulation in CaCo-2 cells (UHPLC); type: cell-based, human; details: 3 h; for Effect on intracellular DOX concentration: DOX 6 µM + sesquiterpene 10 or 50 µg/mL
Description: The effect of sesquiterpenes on DOX accumulation in cells was also studied. Concentrations of DOX within cells after a 3-h incubation of CaCo-2 cells, hepatocytes with DOX alone and DOX + sesquiterpene combinations were analyzed. […] On the other hand, the addition of all sesquiterpenes to DOX led to a concentration-dependent increase of DOX concentration within CaCo-2 cells. […] CAO (at concentration 50 µg/mL) was able to enhance the intracellular DOX concentration in CaCo-2 cells at a rate of 3.6-times.
The suspension of CaCo-2 cells or hepatocytes (600 µL; density 5000 cells/100 µL) per well was set to a 12-well plate. After 48 h, 600 µL of solutions in medium of the tested substances were added. The cells were treated with DOX (6 µM) alone, or in combination with individual sesquiterpenes (10 or 50 µg/mL) for 3 h. At the end of the experiment, the medium was removed and cells were washed with 500 µL of PBS. One hundred µL of lysing buffer (25 mM Tris, 150 mM NaCl, 1% Triton, pH 7.4) were then added, at which time the cells were lysed for 15 min, then mixed with 300 µL of ice-cold methanol and centrifuged (10,000× g, 10 min, 4 °C). The supernatant was filtered through a 0.22 µm filter and the filtrate was used for analysis.
DOX was detected on an Agilent 1290 Series UHPLC chromatographic system (Agilent, Santa Clara, CA, USA) equipped with a Zorbax C18 Eclipse Plus (2.1 × 50 mm, 1.8 μm) column with a 1290 Infinity inline filter (Agilent). The HPLC method used by was adapted to a UHPLC system: Isocratic elution of 1.0 mL/min by 0.1% formic acid in water and acetonitrile in ratio 76:24; 30 °C thermostated column compartment; fluorescence detection at λex = 480 nm and λem = 560 nm. Chemical standards were purchased from Toronto Research Chemicals (Toronto, ON, Canada).

[7] = CaCo-2 cells, 72 h incubation, NRU test, concentrations 0–50 µg/mL, read-out: IC50

| SMILES | Effect on DOX toxicity in hepatocytes ([1]; DOX 0.25–2 µM + sesquiterpene 6.125–50 µg/mL) | Combined effect with DOX (combination index, CI) (CaCo-2 cells [2]) | Effect on ROS formation, sesquiterpene alone (CaCo-2 cells [3]) | Inhibition of cancer cell proliferation (CaCo-2 cells [4]; CaCo-2 cells, NRU) | IC50 (CaCo-2 cells [4]; [7]) | Hepatotoxicity / viability of hepatocytes [5] | Effect of DOX alone on ROS production (hepatocytes) | Effect of DOX alone on ROS production (CaCo-2 cells [3]; DOX 1 µM) | IC50 (CaCo-2 cells [4]; CaCo-2 cells, 72-h incubation, NRU, DOX alone, read-out: IC50 (antiproliferative effect of DOX)) | Hepatotoxicity of DOX alone ([5]; DOX 0.25–2 µM) | Effect on DOX toxicity in hepatocytes at 0.5 µM DOX [1] | Effect on DOX toxicity in hepatocytes at other DOX concentrations [1] | Effect of DOX + sesquiterpene on ROS formation compared with DOX alone (CaCo-2 cells [3]) | IC50 (CaCo-2 cells [4]; Caco-2, 72 h) | Combined effect with DOX at lower Fa (CaCo-2 cells [2]; lower fraction of affected cells) | Effect on intracellular DOX concentration (CaCo-2 cells [6]) | Effect on DOX toxicity in hepatocytes at DOX 0.25 and 2 µM ([1]; DOX 0.25 and 2 µM + sesquiterpene) | Combined effect with DOX at Fa > 0.8 (CaCo-2 cells [2]; higher number of cells affected (Fa > 0.8)) | Enhancement of intracellular DOX concentration (CaCo-2 cells [6]; sesquiterpene 50 µg/mL, DOX 6 µM, vs DOX alone) |
| --- | --- | --- | --- | --- | --- | --- | --- | --- | --- | --- | --- | --- | --- | --- | --- | --- | --- | --- | --- |
| C/C1=C\CC/C(C)=C/CC(C)(C)/C=C/C1 [HUM, α-humulene] | did not affect DOX toxicity | acted rather additively | did not influence ROS formation | most effective; also recorded: inhibited the proliferation of CaCo-2 cancer cells | 24.4 ± 2.4 µg/mL | none of tested sesquiterpenes showed hepatotoxicity |  |  |  |  |  |  |  |  |  |  |  |  |  |
| COc1cccc2c1C(=O)c1c(O)c3c(c(O)c1C2=O)C[C@@](O)(C(=O)CO)C[C@@H]3O[C@H]1C[C@H](N)[C@H](O)[C@H](C)O1 [DOX, doxorubicin, reference compound] |  |  |  |  |  |  | did not have a significant effect | increased ROS production | 1900 nM | marked hepatotoxicity |  |  |  |  |  |  |  |  |  |
| C=C(C)[C@@H]1CCC2=CCC[C@@H](C)[C@]2(C)C1 [VAL, valencene] |  | significant synergistic effects with DOX | pro-oxidative effects | inhibited the proliferation of CaCo-2 cancer cells |  | none of tested sesquiterpenes showed hepatotoxicity |  |  |  |  | increased DOX toxicity | did not influence DOX toxicity | increase the pro-oxidative effect of DOX | 38.1 ± 2.4 µg/mL |  |  |  |  |  |
| C=CC(C)(O)CC/C=C(\C)CCC=C(C)C (racemic) [NER, (±)-trans-nerolidol] |  | significant synergistic effects with DOX | strong antioxidant | most effective; also recorded: inhibited the proliferation of CaCo-2 cancer cells | 28.7 ± 2.5 µg/mL | none of tested sesquiterpenes showed hepatotoxicity |  |  |  |  | increased DOX toxicity | did not influence DOX toxicity | significant antioxidant effect |  | most synergistic effect on DOX | more pronounced enhancement of DOX accumulation |  |  |  |
| C=C1CC[C@H]2O[C@]2(C)CC[C@@H]2[C@@H]1CC2(C)C [CAO, β-caryophyllene oxide] |  | significant synergistic effects with DOX | pro-oxidative effects | inhibited the proliferation of CaCo-2 cancer cells | > 50 µg/mL | none of tested sesquiterpenes showed hepatotoxicity; also recorded: mildly increased the viability of hepatocytes in a concentration-dependent manner |  |  |  |  |  |  | increase the pro-oxidative effect of DOX |  |  | more pronounced enhancement of DOX accumulation | significantly ameliorate DOX toxicity | strongest | 3.6 times |
